In paper PMC6071089 (Nanomaterials, 2018):

Tested on: C2C12 cells
Assay: Inhibition of CCPs- and caveolae-mediated endocytosis of CK2.3-Qdots
Assay type: cell-based, murine
Conditions: then 100 nM CK2.3-Qdots 18 h, confocal
Procedure: C2C12 cells were grown in 35 mm dishes containing 18 mm × 18 mm square coverslips at a cell density of 1 × 10^4 cells/well for two days in DMEM media containing 20% FBS and 1% penicillin/streptomycin and at the end of the 2nd day, cells were serum starved with phenol-free DMEM media supplemented with 1% penicillin/streptomycin, but without FBS for 18 h. Next, we used chlorpromazine from Cayman chemical (Ann Arbor, MI, USA) to inhibit CCPs-mediated endocytosis. […] C2C12 cells were treated with 5 μm of Chlorpromazine in DMEM media supplemented with 10% FBS and 1% penicillin/streptomycin for 24 h [41]. […] C2C12 cells were treated with 50 μm of Lovastatin in phenol-free DMEM without FBS and supplemented only with 1% penicillin/streptomycin for 24 h [41, 42]. […] C2C12 cells were treated with 100 μm of methyl-β-cyclodextrin in phenol-free DMEM without FBS and supplemented only with 1% penicillin/streptomycin for 24 h [43]. […] After 18 h, cells were fixed using 4.4% (w/v) paraformaldehyde purchased from Sigma-Aldrich (St. Louis, MO, USA) for 20 min and permeabilized with 0.05% (w/v) saponin from Sigma-Aldrich (St. Louis, MO, USA) diluted in diH2O, for 10 min on ice. Later the nucleus was stained using 100 μL (0.5 ng/mL) of Hoechst (catalog # 23491-45-4) from Sigma-Aldrich (St. Louis, MO, USA). The coverslips were then mounted on the slides using Airvol [38]. Slides were imaged using Zeiss LSM 710 at 63×/1.4 Plan-Apochromat oil objective.
To inhibit both endocytic pathways we used methyl-β-cyclodextrin (MβCD) [60]. […] C2C12 cells were either left unstimulated or stimulated with the pharmacological inhibitors for 24 h. […] Cells were fixed, and images were collected using a confocal microscope (Figure 11).

CN(C)CCCN1c2ccccc2Sc2ccc(Cl)cc21 [chlorpromazine, Chlorpromazine]
effect of inhibitor on uptake of CK2.3-Qdots (chlorpromazine 5 μm, 24 h pre-treatment (CCP inhibitor)): did not affect the uptake

CC[C@H](C)C(=O)O[C@H]1C[C@@H](C)C=C2C=C[C@H](C)[C@H](CC[C@@H]3C[C@@H](O)CC(=O)O3)[C@H]21 [lovastatin, Lovastatin]
effect of inhibitor on uptake of CK2.3-Qdots (lovastatin 50 μm, 24 h pre-treatment (caveolae inhibitor)): prevented CK2.3-Qdot®s from entering C2C12 cells

Methyl-β-cyclodextrin [MβCD]
effect of inhibitor on uptake of CK2.3-Qdots (methyl-β-cyclodextrin 100 μm, 24 h pre-treatment (CCP and caveolae inhibitor)): prevented CK2.3-Qdot®s from entering C2C12 cells
